Non-standard residues stand in square brackets, D forms with d. Residues, ends and D or L forms follow the SMILES beside them. ξ: configuration not given here. *: point of attachment. X1 = COC1=CC(=O)N(C(=O)C(O*)C(C)C)C1Cc1ccccc1; ξNMe2Val = CC(C)C(C(=O)*)N(C)C; Butoxycarbonyl = CCCCOC(=O)*; NMeV = CN[CH](C(=O)O)C(C)C; Bn = c1ccc(C*)cc1

As a reminder, the melting point is the temperature, or range, at which the solid turns liquid.

For the molecule `Cc1ccccc1CNC(=O)[C@H]1N(C(=O)[C@@H](O)[C@H](Cc2ccccc2)NC(=O)C(C)C(C)C(=O)OC[C@H]2O[C@@H](n3cc(C)c(=O)[nH]c3=O)CC2N=[N+]=[N-])CSC1(C)C` (stereo partly specified), the melting point was in the range of 116 to 118 °C.

With `OCCOc1ccc(-c2ccc(OCCO)cc2)cc1`, the melting point was in the range of 201 to 202 °C.

As for `Brc1cc(C(Br)(Br)C(Br)(Br)C(Br)(Br)c2ccccc2)c(Br)c(Br)c1Br`, the melting point was 309 to 311 °C.

For `CCC(CC)Nc1cc(C)nc(Oc2c(C)cc(C)cc2C)c1[N+](=O)[O-]`, the melting point fell in the range of 160 to 162 °C.

For `O=C(CCS(=O)(=O)CCCl)OCC(COC(=O)CCS(=O)(=O)CCCl)(COC(=O)CCS(=O)(=O)CCCl)COC(=O)CCS(=O)(=O)CCCl`, the melting point was 68 to 69 °C.

The molecule `O=C(Oc1ccc2c(OC(=O)c3ccc(OCc4ccccc4)c(Cl)c3)c3ccccc3cc2c1OC(=O)c1ccc(OCc2ccccc2)c(Cl)c1)c1ccc(OCc2ccccc2)c(Cl)c1` yielded a melting point of 106 to 109 °C.

On to `CC(C)(C)c1cc(SC(Sc2cc(C(C)(C)C)c(O)c(C(C)(C)C)c2)C(Sc2cc(C(C)(C)C)c(O)c(C(C)(C)C)c2)Sc2cc(C(C)(C)C)c(O)c(C(C)(C)C)c2)cc(C(C)(C)C)c1O`, for which the melting point lay in the range of 221 to 223 °C.

`CCOC(CN1C(=O)C2=C(c3cc4cc(C(C)(C)C)cc(C(C)(C)C)c4o3)N(CC(OCC)OCC)C(=O)C2=C1c1cc2cc(C(C)(C)C)cc(C(C)(C)C)c2o1)OCC`: the melting point lay within 194 to 196 °C.

The molecule `COc1cc(OC)c(/C=C/C(c2ccc(OC)c(OC)c2OC)S(=O)(=O)C(/C=C/c2c(OC)cc(OC)cc2OC)c2ccc(OC)c(OC)c2OC)c(OC)c1` (stereo unspecified) displayed a melting point of 94 to 96 °C.

`CCCCCc1ccc(OCCCCCCOc2ccc(-c3ccc4c5c(c(C(=O)OCC)cc4c3)C=CC(c3ccccc3)(c3ccc(N4CCCCC4)cc3)O5)cc2)cc1` (stereo unspecified) came in with a melting point of 85 to 86 °C.

Molecule `Cc1ccc(S(=O)(=O)N2CCOCCN(S(=O)(=O)c3ccc(C)cc3)CCN(S(=O)(=O)c3ccc(C)cc3)CCN(S(=O)(=O)c3ccc(C)cc3)CC2)cc1` showed a melting point of 198 to 201 °C.

`CCC(C=CC(C)C1CCC2C3CC=C4CC(OC(=O)N(CC(COC(c5ccccc5)(c5ccccc5)c5ccccc5)C(=O)NC)C(C)C)CCC4(C)C3CCC12C)C(C)C` (stereo unspecified) displayed a melting point of 92 to 93 °C.

As to `CCCCOC(=O)NC(COCc1ccccc1)C(=O)NC(Cc1c[nH]c2ccccc12)C(=O)NC(CO)C(=O)NC(Cc1ccc(O)cc1)C(=O)NC(Cc1ccccc1)C(=O)NC(CC(C)C)C(=O)OC` (stereo unspecified) (Butoxycarbonyl-S(Bn)WSYFL-OMe; configuration not given here), the melting point lay in the range of 200 to 202 °C.

Molecule `CCc1nc(OC)c(NC(=O)N2CCN(c3cc(Cl)cc(Cl)c3)CC2)cc1C(=O)NC(C)C(=O)Nc1cc(CO)cc(Nc2c3ccccc3nc3ccccc23)c1` (stereo unspecified) displayed a melting point of 184 to 186 °C.

`COc1cc(OC)c(/C=C/C(c2ccc(OC)c(NS(=O)(=O)C(F)(F)F)c2)S(=O)(=O)C(/C=C/c2c(OC)cc(OC)cc2OC)c2ccc(OC)c(NS(=O)(=O)C(F)(F)F)c2)c(OC)c1` (stereo unspecified) registered a melting point of 144 to 146 °C.

Turning to `CC(C)CCCC(C)C1CCC2C3CC=C4CC(N(CCCNC(=O)CCNC(=O)CCNC(=O)CCCCCNc5ccc([N+](=O)[O-])c6nonc56)S(=O)(=O)c5ccccc5[N+](=O)[O-])CCC4(C)C3CCC12C` (stereo unspecified), the melting point fell in the range of 113 to 114 °C.

For the molecule `CCc1nc2c(cnn2CC)c(NC2CCOCC2)c1CNC(=O)c1cccc(C(=O)NCc2ccc(C)c(-c3cccc(CN4CCN(C(=O)OC(C)(C)C)C(C)C4)c3)c2)c1` (stereo unspecified), the melting point was in the range of 115 to 118 °C.

`CCCc1[nH]c2ccccc2c1C1(c2ccc(N(CC)CC)cc2OCCOCCOc2cc(N(CC)CC)ccc2C2(c3c(CCC)[nH]c4ccccc34)OC(=O)c3ccccc32)OC(=O)c2ccccc21` (stereo unspecified) displayed a melting point of 191 to 194 °C.

In the case of `CCOC(=O)c1c(I)c(NS(=O)(=O)c2cccc3c(N(C)C)cccc23)c(I)c(N(CC)C(C)=O)c1I`, the melting point was in the range of 238 to 240 °C.

Regarding `COc1ccc(C(CCCC(C(=O)C(CCCC(c2ccc(OC)c(OC)c2)N2C(=O)c3ccccc3C2=O)N2C(=O)c3ccccc3C2=O)N2C(=O)c3ccccc3C2=O)N2C(=O)c3ccccc3C2=O)cc1OC` (stereo unspecified), the melting point came to 195 °C.

`FC(F)(F)C(F)(F)C(F)(F)C(F)(F)C(F)(F)C(F)(F)CCc1ccc(P(c2ccccc2)c2ccc(CCC(F)(F)C(F)(F)C(F)(F)C(F)(F)C(F)(F)C(F)(F)F)cc2)cc1` came in with a melting point of 42.1 to 43.1 °C.

`CCCCCCCCCCOc1cc2c3cc(OCCCCCCCCCC)c(OCCCCCCCCCC)cc3c3c(OC)ccc(OC)c3c2cc1OCCCCCCCCCC` returned a melting point of 69 to 70 °C.

In turn, `O=C(Nc1ccc(Br)cc1)OC1CCCNC1` (stereo unspecified) showed a melting point of 169 to 170 °C.

`CCCCC(CC)CN1C(=O)C(=c2[nH]c(=c3[nH]c(=C4C(=O)N(CC(CC)CCCC)C(=O)N(CC(CC)CCCC)C4=O)c4ccccc34)c3ccccc23)C(=O)N(CC(CC)CCCC)C1=O` (stereo unspecified) showed a melting point of 198 to 206 °C.

In turn, `CC(C)C[C@H](NC(=O)[C@H](C)NC(=O)[C@H](C)NC(=O)OC(C)(C)C)C(=O)NCCNc1ccc(NCCNC(=O)[C@H](CC(C)C)NC(=O)[C@H](C)NC(=O)[C@H](C)NC(=O)OC(C)(C)C)c2c1C(=O)c1c(O)ccc(O)c1C2=O` gave a melting point of more than 220 °C.

In turn, `CCCCCCCCCCCCCCCCCCOc1cc(OCCCCc2ccc3cc(OCc4ccccc4)c(OCc4ccccc4)cc3c2)cc(N(CC(=O)O)CC(=O)O)c1` gave a melting point of 83 to 86 °C.

As to `O=C(Nc1ccc(Cl)cc1)c1ccc(-c2nn[nH]n2)c(NC(=O)c2sc3ccccc3c2Cl)c1`, the melting point is more than 250 °C.

`COc1cc(OC)c(/C=C/C(c2ccc(OC)c(NC(=O)c3cc([N+](=O)[O-])cc([N+](=O)[O-])c3)c2)S(=O)(=O)C(/C=C/c2c(OC)cc(OC)cc2OC)c2ccc(OC)c(NC(=O)c3cc([N+](=O)[O-])cc([N+](=O)[O-])c3)c2)c(OC)c1` (stereo unspecified) displayed a melting point of 277 to 279 °C.

In the case of `COc1cc(OC)c(/C=C/C(c2ccc(OC)c(NC(=O)c3ccc(N)cc3)c2)S(=O)(=O)C(/C=C/c2c(OC)cc(OC)cc2OC)c2ccc(OC)c(NC(=O)c3ccc(N)cc3)c2)c(OC)c1` (stereo unspecified), the melting point was in the range of 137 to 140 °C.

On to `CC(COC(=O)CCc1cc(C(C)(C)C)c(O)c(C(C)(C)C)c1)(COC(=O)CCc1cc(C(C)(C)C)c(O)c(C(C)(C)C)c1)COC(=O)CCc1cc(C(C)(C)C)c(O)c(C(C)(C)C)c1`, for which the melting point lay in the range of 55 to 78 °C.

The molecule `CCCc1[nH]c2ccccc2c1C1(c2ccc(N(CC)CC)cc2OCCCCCCCCCCOc2cc(N(CC)CC)ccc2C2(c3c(CCC)[nH]c4ccccc34)OC(=O)c3ccccc32)OC(=O)c2ccccc21` (stereo unspecified) gave a melting point of 116 to 118 °C.

Regarding `COc1cc(OC)c(/C=C/C(c2ccc(OC)c(NC(C)C(=O)O)c2)S(=O)(=O)C(/C=C/c2c(OC)cc(OC)cc2OC)c2ccc(OC)c(NC(C)C(=O)O)c2)c(OC)c1` (stereo unspecified), the melting point fell in the range of 176 to 180 °C.

`Clc1c(Br)c(Cl)c(COCc2c(Cl)c(Br)c(Cl)c(Br)c2Br)c(Br)c1Br`: the melting point was in the range of 274 to 276 °C.

Take `COc1ccc(C2Sc3ccccc3N(CCN(C)C)C(=O)C2OC(=O)C=CC(=O)OC2C(=O)N(CCN(C)C)c3ccccc3SC2c2ccc(OC)cc2)cc1` (stereo unspecified): the melting point is 112 to 114 °C.

For the molecule `CN(C(=O)C(CC(Cc1ccccc1)C(N)=O)NC(=O)OCc1ccccc1)c1ccc(OCC(=O)NC(CC(N)=O)C(=O)NC(Cc2ccccc2)C(O)C(=O)N2CCCC2C(=O)NC(C)(C)C)cc1` (stereo unspecified), the melting point lay in the range of 85 to 91 °C.

On to `CC(C)[C@H](NC(=O)N(C)Cc1nc2ccccc2[nH]1)C(=O)N[C@@H](Cc1ccccc1)[C@H](O)[C@H](O)[C@H](Cc1ccccc1)NC(=O)[C@@H](NC(=O)N(C)Cc1nc2ccccc2[nH]1)C(C)C`, for which the melting point fell in the range of 107 to 109 °C.

Regarding `CCC1(O)CC(OC2CC(N(C)C)C(OC3CC4OC5CC(=O)C(C)OC5OC4C(C)O3)C(C)O2)c2c(cc3c(c2O)C(=O)c2c(O)cccc2C3=O)C1C(=O)OC` (stereo unspecified), the melting point was determined as 161 °C.

`CCCCCCCCCCCCCCCCCCCCCCCCCC(C)=CCCC(C)=CCCC(C)=CCCC(C)=CCCC(C)=CCCC(C)=CCCC(C)=CCCC(C)=CCCC(C)=CCOC(=O)C1CCCCC1` yielded a melting point of 34 to 35 °C.

Consider `COC1=CC(=O)N(C(=O)C(OC(=O)C2CCCN2C(=O)C2CCCN2C(=O)C(C(C)C)N(C)C(=O)C(NC(=O)C(C(C)C)N(C)C)C(C)C)C(C)C)C1Cc1ccccc1` (stereo unspecified) (ξNMe2Val-V[NMeV]PP-X1; configuration not given here), for which the melting point was 143 to 148 °C.

For `CC(=O)OCC(CN(CC(COC(C)=O)OC(C)=O)C(=O)c1c(I)c(NC(=O)C2CCCO2)c(I)c(C(N)=O)c1I)OC(C)=O` (stereo unspecified), the melting point lay in the range of 101 to 104 °C.

For the molecule `Cc1ccnc2nc(SCc3ccccc3)nn12`, the melting point was 102 to 104 °C.

In the case of `CCc1nc(C)c(C(=O)OCOC(=O)C(C)(C)C)n1Cc1ccc2oc(-c3ccccc3-c3nnn(C(c4ccccc4)(c4ccccc4)c4ccccc4)n3)c(Br)c2c1`, the melting point was in the range of 51 to 53 °C.

The molecule `NCCC(N)c1ccccc1C(F)(F)F` (stereo unspecified) had a melting point of 213 to 217 °C.

`CS(C)(=O)=NS(=O)(=O)c1cccc(F)c1C#N` gave a melting point of 184 °C.

For the molecule `Cc1ccc(N(C)c2cccs2)cc1O`, the melting point fell in the range of 131 to 133 °C.

Take `CCOC(=O)COc1cccc2c1CCc1sc(S(=O)CC(c3ccccc3)c3ccccc3)nc1-2` (stereo unspecified): the melting point fell in the range of 127 to 129 °C.

Molecule `CC(C)CCCC(C)C1CCC2C3CC=C4CC(NCCCCC(=O)NCCC(=O)NCCC(=O)NCCCCC(C(=O)O)N(CC(=O)O)CC(=O)O)CCC4(C)C3CCC12C` (stereo unspecified) gave a melting point of 101 to 103 °C.

For the molecule `CCOC(=O)c1cnc2c(c(C)nn2C)c1NCS(=O)(=O)c1ccc(Oc2ccc(Cl)cc2)cc1`, the melting point was 52 to 55 °C.

Molecule `COc1cc(OC)c(/C=C/C(c2ccc(OC)c(NC(C)=O)c2)S(=O)(=O)C(/C=C/c2c(OC)cc(OC)cc2OC)c2ccc(OC)c(NC(C)=O)c2)c(OC)c1` (stereo unspecified) returned a melting point of 220 to 223 °C.

`CS(=O)(=O)N1CC=C(C#Cc2ccc3c(c2)NC(=O)CC(c2cccc(C#N)c2)=N3)CC1` displayed a melting point of 235 °C.

Turning to `CC(=O)C1CCC2C3CCC4CC(O)(C#Cc5cccnc5)CCC4(C)C3CCC12C` (stereo unspecified), the melting point was 230 to 235 °C.

Values taken from a melting point compilation (Tetko et al.).
